SMILES strings stand for the structures.

In US11208400B2, “Substituted 6-(1H-pyrazol-1-yl)pyrimidin-4-amine derivatives and uses thereof” (Bayer Aktiengesellschaft, priority 2016, dated 2021) one finds IC50 data, which are given here for 27 compounds.

In the assay the target is T1, human Npt2a (Homo sapiens, UniProt Q06495).
T1 construct: expressed in transfected cells
T1 sequence (Q06495 1-639): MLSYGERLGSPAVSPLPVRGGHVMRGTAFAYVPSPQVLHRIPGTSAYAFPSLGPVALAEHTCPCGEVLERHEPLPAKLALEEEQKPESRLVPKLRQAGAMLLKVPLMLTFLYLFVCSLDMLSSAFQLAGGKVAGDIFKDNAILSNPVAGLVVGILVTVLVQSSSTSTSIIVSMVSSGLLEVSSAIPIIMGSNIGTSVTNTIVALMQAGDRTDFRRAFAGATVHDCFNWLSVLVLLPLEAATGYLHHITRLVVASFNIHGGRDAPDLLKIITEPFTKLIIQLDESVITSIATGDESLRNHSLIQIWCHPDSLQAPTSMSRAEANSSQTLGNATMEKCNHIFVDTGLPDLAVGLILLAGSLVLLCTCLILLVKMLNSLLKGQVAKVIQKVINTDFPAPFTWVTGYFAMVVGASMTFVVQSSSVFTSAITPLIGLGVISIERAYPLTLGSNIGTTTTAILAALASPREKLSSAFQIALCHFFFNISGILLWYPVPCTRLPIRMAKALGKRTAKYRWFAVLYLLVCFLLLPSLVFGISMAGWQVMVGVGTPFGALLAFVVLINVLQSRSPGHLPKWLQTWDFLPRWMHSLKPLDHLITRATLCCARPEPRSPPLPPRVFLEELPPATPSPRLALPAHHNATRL
The assay is described as follows: Npt2a activity cell based assay, membrane potential dye, CHO T-REx hNpt2a cells. The settings on record: doxycycline-induced, depolarization by sodium phosphate influx, average or median values if tested more than once. Summed up: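 Cells were doxycycline-induced CHO T-REx hNpt2a, dye-loaded and pretreated 5 min at RT with 1 nM–50 μM compound in Na-free pH 7.4 buffer. IC50 was fit to the post/pre-trigger fluorescence ratio.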
For `Cc1c(-c2ccc(F)cc2)nn(CC2CC2)c1Nc1cc(-n2cc(C(F)(F)F)cn2)ncn1` [Example 426, N-[1-(cyclopropylmethyl)-3-(4-fluorophenyl)-4-methyl-1H-pyrazol-5-yl]-6-[4-(trifluoromethyl)-1H-pyrazol-1-yl]pyrimidin-4-amine], the IC50 amounted to 59 nM.

As to `CCc1c(Nc2cc(-n3nc(C)c(C4(O)CCC4)c3C)ncn2)nn(C)c1-c1ccc(F)cc1` [Example 215, 1-[1-(6-{[4-ethyl-5-(4-fluorophenyl)-1-methyl-1H-pyrazol-3-yl]amino}pyrimidin-4-yl)-3,5-dimethyl-1H-pyrazol-4-yl]cyclobutanol], the IC50 worked out at 250 nM.

The compound `Cc1nn(-c2cc(Nc3c(C)c(-c4ccc(C(F)(F)F)nc4)nn3C)ncn2)c(C)c1Cl` [Example 550, 6-(4-chloro-3,5-dimethyl-1H-pyrazol-1-yl)-N-{1,4-dimethyl-3-[6-(trifluoromethyl)pyridin-3-yl]-1H-pyrazol-5-yl}pyrimidin-4-amine] displayed an IC50 of 500 nM. Compound `COc1c(-c2ccc(C#N)cc2)nn(C)c1Nc1cc(-n2nc(C)cc2C)ncn1` [Example 444, 4-(5-{[6-(3,5-dimethyl-1H-pyrazol-1-yl)pyrimidin-4-yl]amino}-4-methoxy-1-methyl-1H-pyrazol-3-yl)benzonitrile] came in with an IC50 of 120 nM. Compound `CCOC(=O)c1c(C)nn(-c2cc(Nc3c(Cl)c(-c4ccc(C#N)cc4)nn3CC3CC3)ncn2)c1C` [Example 442, ethyl 1-(6-{[4-chloro-3-(4-cyanophenyl)-1-(cyclopropylmethyl)-1H-pyrazol-5-yl]amino}pyrimidin-4-yl)-3,5-dimethyl-1H-pyrazole-4-carboxylate] showed an IC50 of 8 nM.

The compound `CCOC(=O)c1c(C)nn(-c2cc(Nc3c(C)c(-c4ccc(F)cn4)nn3CC3CC3)ncn2)c1C` [Example 438, ethyl 1-(6-{[1-(cyclopropylmethyl)-3-(5-fluoropyridin-2-yl)-4-methyl-1H-pyrazol-5-yl]amino}pyrimidin-4-yl)-3,5-dimethyl-1H-pyrazole-4-carboxylate] had an IC50 of 16 nM.

For the compound `COCCn1nc(-c2ccc(F)cn2)c(C)c1Nc1cc(-n2nc(C)cc2C)ncn1` [Example 542, 6-(3,5-dimethyl-1H-pyrazol-1-yl)-N-[3-(5-fluoropyridin-2-yl)-1-(2-methoxyethyl)-4-methyl-1H-pyrazol-5-yl]pyrimidin-4-amine], the IC50 came out at 28 nM. To `CCOC(=O)c1c(C)nn(-c2cc(Nc3nn(C)c(-c4ccc(C#N)cc4)c3C)ncn2)c1C` [Example 299, ethyl 1-(6-{[5-(4-cyanophenyl)-1,4-dimethyl-1H-pyrazol-3-yl]amino}pyrimidin-4-yl)-3,5-dimethyl-1H-pyrazole-4-carboxylate] belongs 5 nM; to `Cc1cc(C(F)F)n(-c2cc(Nc3nn(CC(F)F)c(-c4ccc(C#N)cc4)c3C)ncn2)n1` [Example 251, 4-[1-(2,2-difluoroethyl)-3-({6-[5-(difluoromethyl)-3-methyl-1H-pyrazol-1-yl]pyrimidin-4-yl}amino)-4-methyl-1H-pyrazol-5-yl]benzonitrile], 14 nM.

`Cc1nn(-c2cc(Nc3c(C)c(-c4ccc(C(F)F)cc4)nn3CC3CC3)ncn2)c(C)c1C(O)C1CC1` (single isomer, unassigned) [Example 495, Cyclopropyl {1-[6-({1-(cyclopropylmethyl)-3-[4-(difluoromethyl)phenyl]-4-methyl-1H-pyrazol-5-yl}amino)pyrimidin-4-yl]-3,5-dimethyl-1H-pyrazol-4-yl}methanol] came in with an IC50 of 11 nM. For `CCOC(=O)c1c(C)nn(-c2cc(Nc3nn(C)c(-c4ccc(Cl)cc4)c3C)ncn2)c1C` [Example 353, ethyl 1-(6-{[5-(4-chlorophenyl)-1,4-dimethyl-1H-pyrazol-3-yl]amino}pyrimidin-4-yl)-3,5-dimethyl-1H-pyrazole-4-carboxylate] the value was 5 nM; for `Cc1nn(-c2ccc(C#N)cc2)c(C)c1Nc1cc(-n2nc(C)c(C(C)(C)O)c2C)ncn1` [Example 366, 4-[4-({6-[4-(2-hydroxypropan-2-yl)-3,5-dimethyl-1H-pyrazol-1-yl]pyrimidin-4-yl}amino)-3,5-dimethyl-1H-pyrazol-1-yl]benzonitrile], 150 nM; for `COc1ccc(-c2nn(CC3CC3)c(Nc3cc(-n4nc(C)cc4C(F)F)ncn3)c2C)cc1` [Example 489, N-[1-(cyclopropylmethyl)-3-(4-methoxyphenyl)-4-methyl-1H-pyrazol-5-yl]-6-[5-(difluoromethyl)-3-methyl-1H-pyrazol-1-yl]pyrimidin-4-amine], 270 nM. For `Cc1cc(C)n(-c2cc(Nc3c(C)c(-c4ccc(OC(F)(F)F)cc4)nn3C)ncn2)n1` [Example 116, 6-(3,5-dimethyl-1H-pyrazol-1-yl)-N-{1,4-dimethyl-3-[4-(trifluoromethoxy)phenyl]-1H-pyrazol-5-yl}pyrimidin-4-amine] the value was 92.5 nM; for `Cc1nn(-c2cc(Nc3c(Cl)c(-c4ccccc4)nn3C)ncn2)c(C)c1Cl` [Example 80, 6-(4-chloro-3,5-dimethyl-1H-pyrazol-1-yl)-N-(4-chloro-1-methyl-3-phenyl-1H-pyrazol-5-yl)pyrimidin-4-amine], 44 nM; for `CCc1c(-c2ccc(F)cc2)nn(C)c1Nc1cc(-n2nc(C)c(-c3nnc(C)o3)c2C)ncn1` [Example 226, 6-[3,5-dimethyl-4-(5-methyl-1,3,4-oxadiazol-2-yl)-1H-pyrazol-1-yl]-N-[4-ethyl-3-(4-fluorophenyl)-1-methyl-1H-pyrazol-5-yl]pyrimidin-4-amine], 190 nM. For `Cc1nn(-c2cc(Nc3c(C)c(-c4ccc(C#N)cc4)nn3C)ncn2)c2c1C(=O)CC2` [Example 211, 4-(1,4-dimethyl-5-{[6-(3-methyl-4-oxo-5,6-dihydrocyclopenta[c]pyrazol-1(4H)-yl)pyrimidin-4-yl]amino}-1H-pyrazol-3-yl)benzonitrile] the value was 200 nM; for `Cc1cc(C)n(-c2cc(Nc3n[nH]c(-c4ccc(F)cc4)c3C3CC3)ncn2)n1` [Example 7, N-[4-cyclopropyl-5-(4-fluorophenyl)-1H-pyrazol-3-yl]-6-(3,5-dimethyl-1H-pyrazol-1-yl)pyrimidin-4-amine], 36 nM.

In the case of `Cc1nn(-c2cc(Nc3c(C)c(-c4ccc(C(F)(F)F)nc4)nn3CC3CC3)ncn2)c(C)c1Cl` [Example 534, 6-(4-chloro-3,5-dimethyl-1H-pyrazol-1-yl)-N-{1-(cyclopropylmethyl)-4-methyl-3-[6-(trifluoromethyl)pyridin-3-yl]-1H-pyrazol-5-yl}pyrimidin-4-amine], the IC50 turned out to be 1500 nM. For `Cc1nn(-c2cc(Nc3[nH]nc(-c4ccc(F)cc4)c3C3CC3)ncn2)c(C)c1Cl` [Example 8, 6-(4-chloro-3,5-dimethyl-1H-pyrazol-1-yl)-N-[4-cyclopropyl-3-(4-fluorophenyl)-1H-pyrazol-5-yl]pyrimidin-4-amine] the value was 38 nM; for `Cc1cc(C)n(-c2cc(Nc3nn(C)c(-c4ccc(C(F)F)cc4)c3C)ncn2)n1` [Example 409, N-{5-[4-(difluoromethyl)phenyl]-1,4-dimethyl-1H-pyrazol-3-yl}-6-(3,5-dimethyl-1H-pyrazol-1-yl)pyrimidin-4-amine], 140 nM. With `CNc1ccc(-c2nn(CCOC)c(Nc3cc(-n4nc(C)c(Cl)c4C)ncn3)c2C)cc1` [Example 521, 6-(4-chloro-3,5-dimethyl-1H-pyrazol-1-yl)-N-{1-(2-methoxyethyl)-4-methyl-3-[4-(methylamino)phenyl]-1H-pyrazol-5-yl}pyrimidin-4-amine], the IC50 is 8 nM. For `Cc1cc(C)n(-c2cc(Nc3nn(CC(F)F)c(-c4ccc(C#N)cc4)c3C)ncn2)n1` [Example 252, 4-[1-(2,2-difluoroethyl)-3-{[6-(3,5-dimethyl-1H-pyrazol-1-yl)pyrimidin-4-yl]amino}-4-methyl-1H-pyrazol-5-yl]benzonitrile] the value was 48 nM.

As to `CCc1c(Nc2cc(-n3nc(C)c(-c4nnc(C)o4)c3C)ncn2)nn(C)c1-c1ccc(F)cc1` [Example 271, 6-[3,5-dimethyl-4-(5-methyl-1,3,4-oxadiazol-2-yl)-1H-pyrazol-1-yl]-N-[4-ethyl-5-(4-fluorophenyl)-1-methyl-1H-pyrazol-3-yl]pyrimidin-4-amine], the IC50 is 39 nM.

On to `CCc1c(Nc2cc(-n3nc(C)c(CCO)c3C)ncn2)nn(C)c1-c1ccc(F)cc1` [Example 92, 2-[1-(6-{[4-ethyl-5-(4-fluorophenyl)-1-methyl-1H-pyrazol-3-yl]amino}pyrimidin-4-yl)-3,5-dimethyl-1H-pyrazol-4-yl]ethanol], for which 820 nM corresponded to half-maximal inhibition (IC50). To `CCc1c(Nc2cc(-n3nc(C)cc3C)ncn2)n[nH]c1-c1ccc(F)cc1C` [Example 131, 6-(3,5-dimethyl-1H-pyrazol-1-yl)-N-[4-ethyl-5-(4-fluoro-2-methylphenyl)-1H-pyrazol-3-yl]pyrimidin-4-amine] belongs 1600 nM. The compound `CCc1c(Nc2cc(-n3nc(C)cc3C)ncn2)nn(S(C)(=O)=O)c1-c1ccc(F)cc1` [Example 114, 6-(3,5-dimethyl-1H-pyrazol-1-yl)-N-[4-ethyl-5-(4-fluorophenyl)-1-(methylsulfonyl)-1H-pyrazol-3-yl]pyrimidin-4-amine] yielded an IC50 of 290 nM.
